ChEMBL document CHEMBL3865802, “Natural product-inspired rational design, synthesis and biological evaluation of 2,3-dihydropyrano[2,3-f]chromen-4(8H)-one based hybrids as potential mitochondrial apoptosis inducers” (Eur J Med Chem, 2016)
The source made the active and inactive calls. The calls are words filed in the database; no cut-off is given here.

How the values were obtained:
[1] = Cytotoxicity against human A549 cells assessed as cell growth inhibition after 24 hrs by MTT assay; assay type: functional, cell-based; details: A549, 24 h
[2] = Cytotoxicity against human MCF7 cells assessed as cell growth inhibition after 24 hrs by MTT assay; assay type: functional, cell-based; details: MCF7, 24 h
[3] = Cytotoxicity against human HeLa cells assessed as cell growth inhibition after 24 hrs by MTT assay; assay type: functional, cell-based
MCF7 [4] = assay: Induction of apoptosis in human MCF7 cells assessed as early apoptotic cells at antiproliferative IC50 after 24 hrs by AO/EB dual staining-based fluorescent microscopic analysis; assay type: functional, cell-based
MCF7 [5] = assay: Induction of apoptosis in human MCF7 cells assessed as cytoskeleton breakdown at antiproliferative IC50 after 48 hrs by hoechst 33258 staining-based fluorescent microscopic analysis; assay type: functional, cell-based
MCF7 [6] = assay: Induction of mitochondrial membrane potential loss in human MCF7 cells assessed as accumulation of cells at upper right quadrant at 26.2 uM after 48 hrs by JC-1 staining-based fluorescent microscopic analysis (reference value: 0.2 %); assay type: functional
MCF7 [7] = assay: Induction of mitochondrial membrane potential loss in human MCF7 cells assessed as accumulation of cells at lower right quadrant at 26.2 uM after 48 hrs by JC-1 staining-based fluorescent microscopic analysis (reference value: 0.1 %); assay type: functional
MCF7 [8] = assay: Induction of apoptosis in human MCF7 cells assessed as presence of apoptotic bodies at antiproliferative IC50 after 24 hrs by hoechst 33258 staining-based fluorescent microscopic analysis; assay type: functional, cell-based
MCF7 [9] = assay: Induction of apoptosis in human MCF7 cells assessed as plasma membrane blebbing at antiproliferative IC50 after 48 hrs by hoechst 33258 staining-based fluorescent microscopic analysis; assay type: functional, cell-based
[10] = Downregulation of Bcl2 mRNA expression in human MCF7 cells assessed as Bcl2 mRNA expression level at antiproliferative IC50 after 24 hrs by RT-qPCR analysis relative to control; assay type: functional, cell-based
MCF7 [11] = assay: Induction of apoptosis in human MCF7 cells assessed as DNA fragmentation at antiproliferative IC50 after 24 hrs by ethidium bromide staining based agarose gel electrophoresis method; assay type: functional, cell-based
[12] = Downregulation of Bcl2 mRNA expression in human MCF7 cells assessed as Bcl2 mRNA expression level at antiproliferative IC50 after 48 hrs by RT-qPCR analysis relative to control; assay type: functional, cell-based
[13] = Hemolytic activity against human RBC at 26.2 uM after 4 hrs; assay type: ADME, cell-based; details: erythrocyte
MCF7 [14] = assay: Induction of apoptosis in human MCF7 cells assessed as increase in number of abnormal cells at antiproliferative IC50 by hoechst 33258 staining-based fluorescent microscopic analysis; assay type: functional, cell-based; details: TDE = time-dependent effect
MCF7 [15] = assay: Induction of apoptosis in human MCF7 cells assessed as chromatin condensation at antiproliferative IC50 after 24 hrs by hoechst 33258 staining-based fluorescent microscopic analysis; assay type: functional, cell-based
[16] = Downregulation of Bcl2 protein expression in human MCF7 cells at antiproliferative IC50 after 24 hrs by Western blot analysis; assay type: functional, cell-based
MCF7 [17] = assay: Induction of mitochondrial membrane potential depolarization in human MCF7 cells assessed as increase in green fluorescence at 26.2 uM after 24 to 48 hrs by JC-1 staining-based fluorescent microscopic analysis; assay type: functional, cell-based
[18] = Upregulation of Bax protein expression in human MCF7 cells at antiproliferative IC50 after 24 hrs by Western blot analysis; assay type: functional, cell-based
[19] = Downregulation of Bcl2 mRNA expression in human MCF7 cells assessed as Bcl2 mRNA expression level at antiproliferative IC50 after 12 hrs by RT-qPCR analysis relative to control; assay type: functional, cell-based
MCF7 [20] = assay: Induction of apoptosis in human MCF7 cells assessed as fragmented nuclei at antiproliferative IC50 after 24 hrs by hoechst 33258 staining-based fluorescent microscopic analysis; assay type: functional, cell-based
MCF7 [21] = assay: Induction of apoptosis in human MCF7 cells assessed as morphological changes at antiproliferative IC50 by AO/EB dual staining-based fluorescent microscopic analysis; assay type: functional, cell-based; details: TDE = time-dependent effect
MCF7 [22] = assay: Induction of apoptosis in human MCF7 cells at antiproliferative IC50 assessed as late apoptotic cells after 48 hrs by AO/EB dual staining-based fluorescent microscopic analysis; assay type: functional, cell-based
MCF7 [23] = assay: Induction of mitochondrial membrane potential loss in human MCF7 cells assessed as accumulation of cells at upper right quadrant at 14.3 uM after 48 hrs by JC-1 staining-based fluorescent microscopic analysis (reference value: 0.2 %); assay type: functional
MCF7 [24] = assay: Induction of mitochondrial membrane potential loss in human MCF7 cells assessed as accumulation of cells at lower right quadrant at 14.3 uM after 48 hrs by JC-1 staining-based fluorescent microscopic analysis (reference value: 0.1 %); assay type: functional
MCF7 [25] = assay: Induction of mitochondrial membrane potential depolarization in human MCF7 cells assessed as increase in green fluorescence at 14.3 uM after 24 to 48 hrs by JC-1 staining-based fluorescent microscopic analysis; assay type: functional, cell-based
[26] = Hemolytic activity against human RBC at 14.36 uM after 4 hrs; assay type: ADME, cell-based; details: erythrocyte
[27] = Hemolytic activity against human RBC at 31.2 uM after 4 hrs; assay type: ADME, cell-based; details: erythrocyte
[28] = Hemolytic activity against human RBC at 28.7 uM after 4 hrs; assay type: ADME, cell-based; details: erythrocyte

SMILES | IC50 [1] [µM] | IC50 [2] [µM] | IC50 [3] [µM] | Activity (MCF7 [4]) | Activity (MCF7 [5]) | Activity (MCF7 [8]) | Activity (MCF7 [9]) | Activity (MCF7 [11]) | Activity (MCF7 [14]) | Activity (MCF7 [15]) | Activity [16] | Activity [18] | Activity (MCF7 [20]) | Activity (MCF7 [21]) | Activity (MCF7 [22]) | further results
COc1cc(-c2nnc(NC(=O)c3cc4c(c5c3OC(C)(C)C=C5)OC(C)C(C)C4=O)s2)cc(OC)c1OC (stereo unspecified) | 79.3 | 70 | 97.8 |  |  |  |  |  |  |  |  |  |  |  |  | 
CC1Oc2c(cc(C(=O)Nc3ccncc3)c3c2C=CC(C)(C)O3)C(=O)C1C (stereo unspecified) | 39.3 | 26.2 | 28.6 | Active | Active | Active | Active | Active | Tde | Active | Active | Active | Active | Tde | Active | Activity (MCF7 [6]): 79.8%; Activity (MCF7 [7]): 20.2%; Activity [10]: 64%; Activity [12]: 57%; Activity [13]: Non-Toxic; Activity (MCF7 [17]): Active; Activity [19]: 92.2%
Cc1ccc(-c2nnc(NC(=O)c3cc4c(c5c3OC(C)(C)C=C5)OC(C)C(C)C4=O)s2)cc1 (stereo unspecified) | 20.2 | 14.3 | 25.2 | Active | Active | Active | Active | Active | Tde | Active | Active | Active | Active | Tde | Active | Activity (MCF7 [23]): 86.3%; Activity (MCF7 [24]): 13.7%; Activity (MCF7 [25]): Active; Activity [26]: Non-Toxic; Activity [10]: 46%; Activity [12]: 39.7%; Activity [19]: 82.7%
c1ccc([C@H]2CN3CCSC3=N2)cc1 [LEVAMISOLE] | > 100 | > 100 | 96 |  |  |  |  |  |  |  |  |  |  |  |  | 
CC1Oc2c(cc(C(=O)Nc3cccc4ccccc34)c3c2C=CC(C)(C)O3)C(=O)C1C (stereo unspecified) | 58.1 | 48.1 | 41.7 |  |  |  |  |  |  |  |  |  |  |  |  | 
CC1Oc2c(cc(C(=O)Nc3nccs3)c3c2C=CC(C)(C)O3)C(=O)C1C (stereo unspecified) | 64.4 | 75 | 84 |  |  |  |  |  |  |  |  |  |  |  |  | 
CC1Oc2c(cc(C(=O)Nc3nnc(-c4ccncc4)s3)c3c2C=CC(C)(C)O3)C(=O)C1C (stereo unspecified) | 75 | 57.9 | 74.3 |  |  |  |  |  |  |  |  |  |  |  |  | 
CC1Oc2c(cc(C(=O)Nc3nnc(-c4ccccc4)s3)c3c2C=CC(C)(C)O3)C(=O)C1C (stereo unspecified) | 32.4 | 37.8 | 40.2 |  |  |  |  |  |  |  |  |  |  |  |  | 
CC1Oc2c(cc(C(=O)Nc3nnc(-c4cccs4)s3)c3c2C=CC(C)(C)O3)C(=O)C1C (stereo unspecified) | 74.5 | 78.2 | 92.8 |  |  |  |  |  |  |  |  |  |  |  |  | 
CC1Oc2c(cc(C(=O)Nc3nnc(-c4ccc([N+](=O)[O-])cc4)s3)c3c2C=CC(C)(C)O3)C(=O)C1C (stereo unspecified) | 42.3 | 31.2 | 42.9 | Active | Active | Active | Active | Active | Tde | Active | Active | Active | Active | Tde | Active | Activity [27]: Non-Toxic
CC1Oc2c(cc(C(=O)Nc3cccnc3)c3c2C=CC(C)(C)O3)C(=O)C1C (stereo unspecified) | 26.9 | 28.7 | 41.2 | Active | Active | Active | Active | Active | Tde | Active | Active | Active | Active | Tde | Active | Activity [28]: Non-Toxic
CC1Oc2c(cc(C(=O)O)c3c2C=CC(C)(C)O3)C(=O)C1C (stereo unspecified) | 116 | 88.7 | 102 |  |  |  |  |  |  |  |  |  |  |  |  | 
COc1cc2c(cc1OC)[C@@H]1C(=O)c3ccc4c(c3O[C@@H]1CO2)C=CC(C)(C)O4 [DEGUELIN] |  | 10.6 |  |  |  |  |  |  |  |  |  |  |  |  |  | 
